# Experimental data: patent publication US20020026053A1, “Novel 3-(substituted) -2- indolinones compounds and use thereof as inhibitors of protein kinase activity” (priority 1997, published 2002)
# Target: T1, Met receptor (EGFR/Met chimeric cells, EMR) (Homo sapiens, UniProt P08581)
# T1 construct: expressed in transfected cells; the other entry of the earlier key: EGFR (P00533, Epidermal growth factor receptor)
# Assay: Met Autophosphorylation Assay
# Format: biochemical
# Conditions: protocol P.130
# Procedure, shortened: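 Transiently transfected EGFR/Met chimeric (EMR) cells were lysed in HNTG with 1 mM PMSF. Met was captured on plates coated with goat anti-rabbit IgG, then rabbit anti-Met (C-28), using 90 μg lysate/100 μl for 60 min at room temperature. Phosphotyrosine was read by ELISA.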
# T1 sequence (P08581 with tags, fused parts or gaps): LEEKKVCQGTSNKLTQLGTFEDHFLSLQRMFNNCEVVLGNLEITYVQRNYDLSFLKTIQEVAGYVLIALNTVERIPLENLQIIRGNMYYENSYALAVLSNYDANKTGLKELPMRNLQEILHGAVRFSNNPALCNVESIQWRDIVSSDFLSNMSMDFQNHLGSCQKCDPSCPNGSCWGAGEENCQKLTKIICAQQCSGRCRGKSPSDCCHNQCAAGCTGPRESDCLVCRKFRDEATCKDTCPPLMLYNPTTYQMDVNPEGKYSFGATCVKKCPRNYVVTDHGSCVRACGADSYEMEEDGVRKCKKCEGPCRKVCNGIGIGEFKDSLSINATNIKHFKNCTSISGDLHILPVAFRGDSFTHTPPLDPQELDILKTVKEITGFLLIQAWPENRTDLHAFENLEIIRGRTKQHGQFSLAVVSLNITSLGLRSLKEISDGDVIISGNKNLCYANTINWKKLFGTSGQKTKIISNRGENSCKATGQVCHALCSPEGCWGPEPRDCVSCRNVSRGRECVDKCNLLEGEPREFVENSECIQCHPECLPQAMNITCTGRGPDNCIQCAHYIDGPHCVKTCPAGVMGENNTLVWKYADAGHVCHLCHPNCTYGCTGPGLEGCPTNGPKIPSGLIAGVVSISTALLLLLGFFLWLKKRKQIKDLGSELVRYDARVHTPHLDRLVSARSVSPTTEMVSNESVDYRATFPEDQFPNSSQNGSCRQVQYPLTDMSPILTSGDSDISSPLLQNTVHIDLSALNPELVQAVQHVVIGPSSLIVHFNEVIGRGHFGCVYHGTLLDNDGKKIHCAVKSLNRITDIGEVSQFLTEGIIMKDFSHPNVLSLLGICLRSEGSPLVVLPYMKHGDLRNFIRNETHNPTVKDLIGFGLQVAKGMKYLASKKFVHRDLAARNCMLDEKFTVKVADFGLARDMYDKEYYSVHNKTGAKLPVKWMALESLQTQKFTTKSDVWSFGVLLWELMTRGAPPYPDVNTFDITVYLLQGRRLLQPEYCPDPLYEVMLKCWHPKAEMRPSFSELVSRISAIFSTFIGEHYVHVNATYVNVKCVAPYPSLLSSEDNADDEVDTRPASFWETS
row,Compound,Met Kinase % Inhibition (P.130) [%]
1,Cc1c(Br)ccc2c1C(=Cc1ccc(C(C)C)cc1)C(=O)N2 [10738/C10],3.2
2,CCCOc1ccc(C=C2C(=O)Nc3ccc(Br)c(C)c32)cc1 [10738/C11],12.0
3,CNS(=O)(=O)c1ccc2c(c1)C(=Cc1cccc(Oc3ccc(C)cc3)c1)C(=O)N2 [10738/D02],15.6
4,CNS(=O)(=O)c1ccc2c(c1)C(=Cc1cccc(Oc3ccc(Cl)c(Cl)c3)c1)C(=O)N2 [10738/D03],16.0
5,CNS(=O)(=O)c1ccc2c(c1)C(=Cc1ccc(OC)c(O)c1)C(=O)N2 [10738/D04],32.2
6,CNS(=O)(=O)c1ccc2c(c1)C(=Cc1cc(O)ccc1[N+](=O)[O-])C(=O)N2 [10738/D05],42.4
7,CNS(=O)(=O)c1ccc2c(c1)C(=Cc1cccc(O)c1O)C(=O)N2 [10738/D06],96.0
8,CNS(=O)(=O)c1ccc2c(c1)C(=Cc1cc(O)cc(O)c1)C(=O)N2 [10738/D07],68.3
9,CNS(=O)(=O)c1ccc2c(c1)C(=Cc1ccc(Cl)c(Cl)c1)C(=O)N2 [10738/D08],37.7
10,CNS(=O)(=O)c1ccc2c(c1)C(=Cc1ccccc1OC)C(=O)N2 [10738/D09],22.7
11,CNS(=O)(=O)c1ccc2c(c1)C(=Cc1ccc(C(C)C)cc1)C(=O)N2 [10738/D10],25.3
12,CCCOc1ccc(C=C2C(=O)Nc3ccc(S(=O)(=O)NC)cc32)cc1 [10738/D11],4.3
13,Cc1ccc(Oc2cccc(C=C3C(=O)Nc4ccc(S(=O)(=O)Nc5ccc(C(F)(F)F)cc5)cc43)c2)cc1 [10738/E02],3.8
14,O=C1Nc2ccc(S(=O)(=O)Nc3ccc(C(F)(F)F)cc3)cc2C1=Cc1cccc(Oc2ccc(Cl)c(Cl)c2)c1 [10738/E03],21.1
15,COc1ccc(C=C2C(=O)Nc3ccc(S(=O)(=O)Nc4ccc(C(F)(F)F)cc4)cc32)cc1O [10738/E04],64.1
16,O=C1Nc2ccc(S(=O)(=O)Nc3ccc(C(F)(F)F)cc3)cc2C1=Cc1cc(O)ccc1[N+](=O)[O-] [10738/E05],61.0
17,O=C1Nc2ccc(S(=O)(=O)Nc3ccc(C(F)(F)F)cc3)cc2C1=Cc1cccc(O)c1O [10738/E06],92.4
18,O=C1Nc2ccc(S(=O)(=O)Nc3ccc(C(F)(F)F)cc3)cc2C1=Cc1cc(O)cc(O)c1 [10738/E07],89.3
19,O=C1Nc2ccc(S(=O)(=O)Nc3ccc(C(F)(F)F)cc3)cc2C1=Cc1ccc(Cl)c(Cl)c1 [10738/E08],52.6
20,COc1ccccc1C=C1C(=O)Nc2ccc(S(=O)(=O)Nc3ccc(C(F)(F)F)cc3)cc21 [10738/E09],18.0
21,CC(C)c1ccc(C=C2C(=O)Nc3ccc(S(=O)(=O)Nc4ccc(C(F)(F)F)cc4)cc32)cc1 [10738/E10],5.8
22,CCCOc1ccc(C=C2C(=O)Nc3ccc(S(=O)(=O)Nc4ccc(C(F)(F)F)cc4)cc32)cc1 [10738/E11],11.8
23,Cc1ccc(Oc2cccc(C=C3C(=O)Nc4ccc(S(=O)(=O)N5CCOCC5)cc43)c2)cc1 [10738/F02],66.1
24,O=C1Nc2ccc(S(=O)(=O)N3CCOCC3)cc2C1=Cc1cccc(Oc2ccc(Cl)c(Cl)c2)c1 [10738/F03],20.0

row,Compound,Met Kinase % Inhibition (P.130) [%]
1,COc1ccc(C=C2C(=O)Nc3ccc(S(=O)(=O)N4CCOCC4)cc32)cc1O [10738/F04],61.4
2,O=C1Nc2ccc(S(=O)(=O)N3CCOCC3)cc2C1=Cc1cc(O)ccc1[N+](=O)[O-] [10738/F05],33.5
3,O=C1Nc2ccc(S(=O)(=O)N3CCOCC3)cc2C1=Cc1cccc(O)c1O [10738/F06],86.7
4,O=C1Nc2ccc(S(=O)(=O)N3CCOCC3)cc2C1=Cc1cc(O)cc(O)c1 [10738/F07],52.3
5,O=C1Nc2ccc(S(=O)(=O)N3CCOCC3)cc2C1=Cc1ccc(Cl)c(Cl)c1 [10738/F08],60.5
6,COc1ccccc1C=C1C(=O)Nc2ccc(S(=O)(=O)N3CCOCC3)cc21 [10738/F09],28.9
7,CC(C)c1ccc(C=C2C(=O)Nc3ccc(S(=O)(=O)N4CCOCC4)cc32)cc1 [10738/F10],47.9
8,CCCOc1ccc(C=C2C(=O)Nc3ccc(S(=O)(=O)N4CCOCC4)cc32)cc1 [10738/F11],52.6
9,Cc1ccc(Oc2cccc(C=C3C(=O)Nc4ccc(CCCl)cc43)c2)cc1 [10738/G02],16.9
10,O=C1Nc2ccc(CCCl)cc2C1=Cc1cccc(Oc2ccc(Cl)c(Cl)c2)c1 [10738/G03],32.8
11,COc1ccc(C=C2C(=O)Nc3ccc(CCCl)cc32)cc1O [10738/G04],42.6
12,O=C1Nc2ccc(CCCl)cc2C1=Cc1cc(O)ccc1[N+](=O)[O-] [10738/G05],27.3
13,O=C1Nc2ccc(CCCl)cc2C1=Cc1cccc(O)c1O [10738/G06],86.5
14,O=C1Nc2ccc(CCCl)cc2C1=Cc1cc(O)cc(O)c1 [10738/G07],40.4
15,O=C1Nc2ccc(CCCl)cc2C1=Cc1ccc(Cl)c(Cl)c1 [10738/G08],36.8
16,COc1ccccc1C=C1C(=O)Nc2ccc(CCCl)cc21 [10738/G09],16.9
17,CC(C)c1ccc(C=C2C(=O)Nc3ccc(CCCl)cc32)cc1 [10738/G10],12.5
18,CCCOc1ccc(C=C2C(=O)Nc3ccc(CCCl)cc32)cc1 [10738/G11],22.2
19,Cc1ccc(Oc2cccc(C=C3C(=O)Nc4c(Br)cc(Br)c(C)c43)c2)cc1 [10738/H02],35.3
20,Cc1c(Br)cc(Br)c2c1C(=Cc1cccc(Oc3ccc(Cl)c(Cl)c3)c1)C(=O)N2 [10738/H03],29.5
21,COc1ccc(C=C2C(=O)Nc3c(Br)cc(Br)c(C)c32)cc1O [10738/H04],72.9
22,Cc1c(Br)cc(Br)c2c1C(=Cc1cc(O)ccc1[N+](=O)[O-])C(=O)N2 [10738/H05],73.6
23,Cc1c(Br)cc(Br)c2c1C(=Cc1cccc(O)c1O)C(=O)N2 [10738/H06],93.8
